Source: article PMC10879502, “Linking ATP and allosteric sites to achieve superadditive binding with bivalent EGFR kinase inhibitors” (Communications Chemistry, 2024)

What was measured:
Test in all cases: KINOMEscan
Format in all cases: binding
Conditions in all cases: 1 μM
[1] = target: T1, MET(M1250T) (Homo sapiens, UniProt P08581, M1250T)
T1 construct: purchased Eurofins DiscoverX Corporation

[2] = target: PIK3C2B (Homo sapiens, UniProt O00750)
[3] = target: T2, BRAF(V600E) (Homo sapiens, UniProt P15056, V600E)
T2 construct: purchased Eurofins DiscoverX Corporation (KINOMEscan)
T2 sequence (P15056 whole entry V600E): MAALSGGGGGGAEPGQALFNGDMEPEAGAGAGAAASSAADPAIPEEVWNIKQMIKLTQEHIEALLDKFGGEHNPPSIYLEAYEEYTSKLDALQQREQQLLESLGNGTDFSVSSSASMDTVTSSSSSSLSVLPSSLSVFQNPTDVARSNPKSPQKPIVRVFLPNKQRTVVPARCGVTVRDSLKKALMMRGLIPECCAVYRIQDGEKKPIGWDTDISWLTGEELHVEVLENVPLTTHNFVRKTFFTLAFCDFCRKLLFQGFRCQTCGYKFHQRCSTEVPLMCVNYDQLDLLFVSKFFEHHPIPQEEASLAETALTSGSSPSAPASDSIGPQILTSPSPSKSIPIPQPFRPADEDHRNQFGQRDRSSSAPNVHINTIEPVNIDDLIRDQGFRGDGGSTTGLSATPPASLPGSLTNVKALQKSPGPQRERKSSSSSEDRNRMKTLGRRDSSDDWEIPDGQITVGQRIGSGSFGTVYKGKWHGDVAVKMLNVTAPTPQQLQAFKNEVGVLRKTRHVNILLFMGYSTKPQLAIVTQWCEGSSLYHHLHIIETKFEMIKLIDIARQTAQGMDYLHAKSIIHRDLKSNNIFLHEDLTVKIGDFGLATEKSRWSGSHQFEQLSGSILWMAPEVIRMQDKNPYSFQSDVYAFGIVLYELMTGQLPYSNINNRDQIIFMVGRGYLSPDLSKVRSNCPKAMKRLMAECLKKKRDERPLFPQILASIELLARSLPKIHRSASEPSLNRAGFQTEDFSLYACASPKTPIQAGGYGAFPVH

[4] = target: T3, JAK3(JH1domain-catalytic) (Homo sapiens, UniProt P52333)
T3 construct: JAK3(JH1domain-catalytic); purchased Eurofins DiscoverX (KINOMEscan)
T3 sequence (P52333 822-1111 limits assumed): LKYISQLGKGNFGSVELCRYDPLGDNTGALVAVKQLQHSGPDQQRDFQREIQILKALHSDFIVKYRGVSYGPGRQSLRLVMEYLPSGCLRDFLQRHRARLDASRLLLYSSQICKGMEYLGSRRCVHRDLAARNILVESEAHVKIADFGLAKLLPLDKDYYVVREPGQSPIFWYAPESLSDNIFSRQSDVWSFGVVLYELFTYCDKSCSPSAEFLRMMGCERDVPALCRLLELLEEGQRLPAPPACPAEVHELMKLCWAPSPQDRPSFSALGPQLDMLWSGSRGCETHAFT

[5] = target: PIK3CA(C420R) (Homo sapiens, UniProt P42336, C420R)
[6] = target: PRKG1 (Homo sapiens, UniProt Q13976)
[7] = target: T4, MERTK (Homo sapiens, UniProt Q12866)
T4 construct: purchased Eurofins DiscoverX Corporation

[8] = target: ERBB2 (Homo sapiens, UniProt P04626)
ERBB2, sequence (P04626 23-1255): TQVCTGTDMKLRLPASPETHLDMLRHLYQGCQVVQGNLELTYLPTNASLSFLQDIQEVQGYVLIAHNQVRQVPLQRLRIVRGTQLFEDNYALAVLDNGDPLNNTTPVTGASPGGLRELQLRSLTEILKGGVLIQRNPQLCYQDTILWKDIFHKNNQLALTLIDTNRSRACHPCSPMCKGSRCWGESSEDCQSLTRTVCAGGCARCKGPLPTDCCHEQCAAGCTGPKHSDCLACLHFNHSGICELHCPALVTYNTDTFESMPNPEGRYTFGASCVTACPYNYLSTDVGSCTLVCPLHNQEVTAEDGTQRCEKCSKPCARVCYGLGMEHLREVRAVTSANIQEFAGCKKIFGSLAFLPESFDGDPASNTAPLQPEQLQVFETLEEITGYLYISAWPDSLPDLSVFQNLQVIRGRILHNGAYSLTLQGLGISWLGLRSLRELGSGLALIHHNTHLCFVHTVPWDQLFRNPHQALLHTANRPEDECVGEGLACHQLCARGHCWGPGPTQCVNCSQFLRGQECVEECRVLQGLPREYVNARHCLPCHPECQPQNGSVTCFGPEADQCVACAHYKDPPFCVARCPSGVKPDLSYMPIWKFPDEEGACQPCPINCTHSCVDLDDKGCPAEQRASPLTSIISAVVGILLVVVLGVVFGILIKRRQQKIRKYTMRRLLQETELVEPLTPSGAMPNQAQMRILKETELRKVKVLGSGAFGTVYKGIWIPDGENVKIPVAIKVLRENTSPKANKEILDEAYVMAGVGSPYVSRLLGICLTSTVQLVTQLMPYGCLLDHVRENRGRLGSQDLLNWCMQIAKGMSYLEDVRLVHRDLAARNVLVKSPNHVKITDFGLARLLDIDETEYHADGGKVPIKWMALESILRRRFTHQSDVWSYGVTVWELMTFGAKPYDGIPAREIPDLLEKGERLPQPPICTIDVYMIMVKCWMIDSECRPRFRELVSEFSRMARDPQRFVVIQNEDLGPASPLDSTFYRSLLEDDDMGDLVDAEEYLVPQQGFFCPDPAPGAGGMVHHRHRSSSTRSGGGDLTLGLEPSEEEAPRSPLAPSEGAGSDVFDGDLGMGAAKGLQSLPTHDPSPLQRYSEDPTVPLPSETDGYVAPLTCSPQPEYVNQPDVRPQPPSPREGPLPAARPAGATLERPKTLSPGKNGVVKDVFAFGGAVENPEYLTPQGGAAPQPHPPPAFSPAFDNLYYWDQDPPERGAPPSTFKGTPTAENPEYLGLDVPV

[9] = target: T5, MST1 (Homo sapiens, UniProt Q13043)
T5 construct: purchased Eurofins DiscoverX Corporation

[10] = target: PRKCE (Homo sapiens, UniProt Q02156)
[11] = target: PRKD2 (Homo sapiens, UniProt Q9BZL6)
[12] = target: T6, LKB1 (Homo sapiens, UniProt Q15831)
T6 construct: purchased Eurofins DiscoverX Corporation

[13] = target: FAK (Homo sapiens, UniProt Q05397)
[14] = target: T7, KIT(V559D+V654A) (Homo sapiens, UniProt P10721, V559D/V654A)
T7 construct: purchased Eurofins DiscoverX Corporation

[15] = target: T8, HASPIN (Homo sapiens, UniProt Q8TF76)
T8 construct: purchased Eurofins DiscoverX Corporation

[16] = target: EPHB6 (Homo sapiens, UniProt O15197)
[17] = target: ASK2 (Homo sapiens, UniProt O95382)
[18] = target: ROS1 (Homo sapiens, UniProt P08922)
[19] = target: T9, ABL1(H396P)-nonphosphorylated (Homo sapiens, UniProt P00519, H396P)
T9 construct: purchased Eurofins DiscoverX Corporation

[20] = target: T10, MRCKB (Homo sapiens, UniProt Q9Y5S2)
T10 construct: purchased Eurofins DiscoverX Corporation

[21] = target: T11, MAST1 (Homo sapiens, UniProt Q9Y2H9)
T11 construct: purchased Eurofins DiscoverX Corporation
T11 sequence (Q9Y2H9 whole entry): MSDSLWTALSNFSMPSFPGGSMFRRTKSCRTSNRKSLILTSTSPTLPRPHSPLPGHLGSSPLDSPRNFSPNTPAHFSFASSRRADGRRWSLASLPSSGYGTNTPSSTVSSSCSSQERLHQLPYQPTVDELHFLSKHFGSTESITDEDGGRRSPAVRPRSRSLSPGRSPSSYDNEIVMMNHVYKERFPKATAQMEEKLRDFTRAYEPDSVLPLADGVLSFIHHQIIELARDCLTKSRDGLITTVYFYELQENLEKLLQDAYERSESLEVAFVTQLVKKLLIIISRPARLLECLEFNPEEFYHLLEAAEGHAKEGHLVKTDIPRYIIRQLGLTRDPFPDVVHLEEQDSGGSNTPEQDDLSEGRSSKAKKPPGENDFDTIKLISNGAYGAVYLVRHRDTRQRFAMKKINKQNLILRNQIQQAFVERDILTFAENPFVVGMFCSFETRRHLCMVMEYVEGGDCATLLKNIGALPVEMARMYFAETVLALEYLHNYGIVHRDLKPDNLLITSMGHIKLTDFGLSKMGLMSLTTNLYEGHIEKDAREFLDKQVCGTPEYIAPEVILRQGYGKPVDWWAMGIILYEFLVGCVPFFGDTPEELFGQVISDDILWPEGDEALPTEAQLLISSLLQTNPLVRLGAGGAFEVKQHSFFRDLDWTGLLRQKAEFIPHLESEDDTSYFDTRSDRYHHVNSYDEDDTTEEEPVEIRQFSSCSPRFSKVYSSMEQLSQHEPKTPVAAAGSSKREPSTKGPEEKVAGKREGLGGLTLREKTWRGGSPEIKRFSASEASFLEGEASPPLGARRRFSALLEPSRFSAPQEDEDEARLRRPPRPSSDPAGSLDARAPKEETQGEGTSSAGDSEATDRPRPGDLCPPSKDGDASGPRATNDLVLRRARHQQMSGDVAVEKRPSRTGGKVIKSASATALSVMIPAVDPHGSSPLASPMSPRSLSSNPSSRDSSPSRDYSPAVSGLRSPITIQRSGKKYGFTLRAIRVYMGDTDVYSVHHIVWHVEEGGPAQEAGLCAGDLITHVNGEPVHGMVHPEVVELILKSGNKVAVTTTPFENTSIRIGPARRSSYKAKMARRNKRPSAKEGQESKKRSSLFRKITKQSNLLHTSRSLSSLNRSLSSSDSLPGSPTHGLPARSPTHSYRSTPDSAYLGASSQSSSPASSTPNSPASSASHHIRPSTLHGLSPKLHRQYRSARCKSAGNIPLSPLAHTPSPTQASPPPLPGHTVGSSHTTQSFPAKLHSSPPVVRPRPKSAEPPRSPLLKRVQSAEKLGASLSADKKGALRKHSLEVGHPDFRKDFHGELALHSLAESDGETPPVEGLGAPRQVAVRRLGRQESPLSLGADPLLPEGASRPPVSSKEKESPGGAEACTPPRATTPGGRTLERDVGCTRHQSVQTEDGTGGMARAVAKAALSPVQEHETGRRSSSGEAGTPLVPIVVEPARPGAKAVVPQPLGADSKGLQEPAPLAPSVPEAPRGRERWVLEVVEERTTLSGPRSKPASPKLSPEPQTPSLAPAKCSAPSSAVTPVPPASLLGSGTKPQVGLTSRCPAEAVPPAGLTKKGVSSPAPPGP

[22] = target: T12, FLT3(R834Q) (Homo sapiens, UniProt P36888, R834Q)
T12 construct: purchased Eurofins DiscoverX Corporation

[23] = target: CDKL2 (Homo sapiens, UniProt Q92772)
[24] = target: ZAK (Homo sapiens, UniProt Q9NYL2)
ZAK, sequence (Q9NYL2 whole entry): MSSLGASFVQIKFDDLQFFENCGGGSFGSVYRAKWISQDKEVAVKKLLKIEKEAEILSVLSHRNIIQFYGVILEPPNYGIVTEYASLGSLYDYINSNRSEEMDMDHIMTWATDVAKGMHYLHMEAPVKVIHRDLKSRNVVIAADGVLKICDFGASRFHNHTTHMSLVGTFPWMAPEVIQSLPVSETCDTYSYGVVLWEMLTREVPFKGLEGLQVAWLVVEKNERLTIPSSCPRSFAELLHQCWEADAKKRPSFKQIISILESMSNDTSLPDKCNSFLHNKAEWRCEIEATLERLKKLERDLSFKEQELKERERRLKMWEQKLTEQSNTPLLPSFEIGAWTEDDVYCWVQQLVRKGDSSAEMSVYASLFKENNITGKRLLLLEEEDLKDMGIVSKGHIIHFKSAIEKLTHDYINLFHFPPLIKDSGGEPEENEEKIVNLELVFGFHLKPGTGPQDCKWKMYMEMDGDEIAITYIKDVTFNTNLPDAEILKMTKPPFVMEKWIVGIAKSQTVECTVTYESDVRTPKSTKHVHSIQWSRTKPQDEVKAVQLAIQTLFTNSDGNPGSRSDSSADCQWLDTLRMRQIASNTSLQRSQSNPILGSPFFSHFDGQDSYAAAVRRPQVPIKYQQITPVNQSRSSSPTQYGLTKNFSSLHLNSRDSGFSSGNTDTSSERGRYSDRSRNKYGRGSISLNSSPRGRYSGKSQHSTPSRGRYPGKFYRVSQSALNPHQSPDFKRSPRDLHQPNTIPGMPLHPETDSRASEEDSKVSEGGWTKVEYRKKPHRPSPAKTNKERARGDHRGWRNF

[25] = target: AURKB (Homo sapiens, UniProt Q96GD4)
AURKB, sequence (Q96GD4 whole entry): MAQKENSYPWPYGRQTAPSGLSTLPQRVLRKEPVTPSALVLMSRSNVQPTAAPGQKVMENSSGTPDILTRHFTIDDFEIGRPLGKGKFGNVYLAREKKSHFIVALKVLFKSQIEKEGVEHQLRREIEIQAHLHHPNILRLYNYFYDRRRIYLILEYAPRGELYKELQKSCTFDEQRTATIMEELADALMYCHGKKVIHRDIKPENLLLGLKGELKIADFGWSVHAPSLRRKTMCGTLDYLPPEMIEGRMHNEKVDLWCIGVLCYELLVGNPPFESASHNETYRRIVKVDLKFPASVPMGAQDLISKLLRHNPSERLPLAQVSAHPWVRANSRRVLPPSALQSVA

[26] = target: T13, FRK (Homo sapiens, UniProt P42685)
T13 construct: purchased Eurofins DiscoverX Corporation

[27] = tested on: FLT3(ITD+F691L)
[28] = target: PRP4 (Homo sapiens, UniProt Q13523)
Procedure: (§1) Figure S19 : Metabolic stability determination of 4 in human liver microsomes, compared to a negative control containing bovine serum albumin instead of liver microsomes and a positive control using verapamil instead of compound.
(§2) Table S7 : Data was obtained from KINOMEscan TM using 1 μM of compound 4 against 468 kinases. Eurofins DiscoverX Corporation (San Diego), CA 92121, USA. Results stated as percent of control (POC), where lower values are associated with lower Kd values. […]
(§3) ABL1(F317L)-nonphosphorylated 37 […]
(§4) (1 picture or pasted object on this page, not shown here)

[29] = target: T14, CDC2L5 (Homo sapiens, UniProt Q14004)
T14 construct: purchased Eurofins DiscoverX Corporation (KINOMEscan)
Procedure: as §1, §2, §3, §4

[30] = target: STK33 (Homo sapiens, UniProt Q9BYT3)
[31] = target: SGK (Homo sapiens, UniProt O00141)
[32] = target: RPS6KA5(Kin.Dom.1-N-terminal) (Homo sapiens, UniProt O75582)
[33] = target: EGFR (Homo sapiens, UniProt P00533)
[34] = target: T15, BRK (Homo sapiens, UniProt Q13882)
T15 construct: purchased Eurofins DiscoverX Corporation (KINOMEscan)

[35] = target: RSK2(Kin.Dom.2-C-terminal) (Homo sapiens, UniProt P51812)
[36] = target: PIM3 (Homo sapiens, UniProt Q86V86)
[37] = target: CDK8 (Homo sapiens, UniProt P49336)
[38] = target: T16, LTK (Homo sapiens, UniProt P29376)
T16 construct: purchased Eurofins DiscoverX Corporation

[39] = target: T17, MEK1 (Homo sapiens, UniProt Q02750)
T17 construct: purchased Eurofins DiscoverX Corporation

How did the POC [1] turn out when C=CC(=O)Nc1ccc(OC)c(Nc2cc(-c3[nH]c(CC)nc3-c3cccc(NC(=O)c4cccc5c4NC(=O)c4ccccc4N5)c3)ccn2)c1 [Compound 4] was run?
Its POC is 89% of control.

What about the POC [2] of the same molecule?
Its POC is 74% of control.

What about the POC [3] of the same molecule?
Its POC is 100% of control.

What about the POC [4] of the same molecule?
The POC was 100% of control.

What about the POC [5] of the same molecule?
The POC was 66% of control.

What about the POC [6] of the same molecule?
The POC was 100% of control.

And the POC [7]?
Its POC is 83% of control.

What about the POC [8] of the same molecule?
The POC was 18% of control.

What about the POC [9] of the same molecule?
The POC was 6% of control.

And the POC [10]?
Its POC is 100% of control.

And the POC [11]?
Its POC is 62% of control.

What about the POC [12] of the same molecule?
The POC was 100% of control.

And the POC [13]?
Its POC is 99% of control.

And the POC [14]?
Its POC is 93% of control.

And the POC [15]?
The POC was 100% of control.

What about the POC [16] of the same molecule?
Its POC is 100% of control.

And the POC [17]?
Its POC is 100% of control.

What about the POC [18] of the same molecule?
Its POC is 80% of control.

What about the POC [19] of the same molecule?
The POC was 97% of control.

What about the POC [20] of the same molecule?
The POC was 1.7% of control.

And the POC [21]?
Its POC is 100% of control.

And the POC [22]?
The POC was 100% of control.

And the POC [23]?
The POC was 100% of control.

What about the POC [24] of the same molecule?
The POC was 87% of control.

What about the POC [25] of the same molecule?
The POC was 100% of control.

What about the POC [26] of the same molecule?
The POC was 20% of control.

What about the POC [27] of the same molecule?
Its POC is 79% of control.

What about the POC [28] of the same molecule?
Its POC is 46% of control.

What about the POC [29] of the same molecule?
The POC was 74% of control.

What about the POC [30] of the same molecule?
The POC was 100% of control.

What about the POC [31] of the same molecule?
Its POC is 86% of control.

And the POC [32]?
The POC was 83% of control.

And the POC [33]?
The POC was 17% of control.

And the POC [34]?
Its POC is 96% of control.

And the POC [35]?
Its POC is 100% of control.

What about the POC [36] of the same molecule?
The POC was 100% of control.

What about the POC [37] of the same molecule?
Its POC is 81% of control.

And the POC [38]?
The POC was 48% of control.

What about the POC [39] of the same molecule?
The POC was 100% of control.
